From patent US8741836B2, “Polypeptides” (Novo Nordisk A/S, priority 2011, dated 2014)
Starred links: 1 amine or outer side, 2 acyl side, 3 side chain; linkers in the order of their positions; H or OH if unused. Positions of bridges follow the written chain, without caps; N, C: chain ends. Residues, ends and D or L forms follow the SMILES beside them. *: point of attachment. C20 diacid = O=C(O)CCCCCCCCCCCCCCCCCCC(=O)*; C18 diacid = O=C(O)CCCCCCCCCCCCCCCCC(=O)*; γGlu = O=C(O)[C@H](CCC(=O)[*:2])N[*:1]

Experiment: Assay (III) ThT fibrillation assay for physical stability
Type: physicochemical
Conditions: pH 4.0, ThT fibrillation assay
Description: Assay (III)—ThT Fibrillation Assays for the Assessment of Physical Stability of Protein formulations Low physical stability of a polypeptide may lead to amyloid fibril formation, which is observed as well-ordered, thread-like macromolecular structures in the sample eventually resulting in gel formation. This has traditionally been measured by visual inspection of the sample. However, that kind of measurement is very subjective and depending on the observer. Therefore, the application of a small molecule indicator probe is much more advantageous. Thioflavin T (ThT) is such a probe and has a distinct fluorescence signature when binding to fibrils [Naiki et al. (1989) Anal. Biochem. 177, 244-249; LeVine (1999) Methods. Enzymol. […], 274-284]. The time course for fibril formation can be described by a sigmoidal curve with the following expression [Nielsen et al. (2001) Biochemistry 40, 6036-6046]: [formula] Here, F is the ThT fluorescence at the time t. The constant t0 is the time needed to reach 50% of maximum fluorescence. […] Few of those intermediates nucleate to form a template onto which further intermediates may assembly and the fibrillation proceeds. The lag-time corresponds to the interval in which the critical mass of nucleus is built up and the apparent rate constant is the rate with which the fibril itself is formed. Sample Preparation Samples were prepared freshly before each assay. Each sample composition is described in each example. The pH of the sample was adjusted to the desired value using appropriate amounts of concentrated NaOH and HClO4 or HCl. Thioflavin T was added to the samples from a stock solution in H2O to a final concentration of 1 μM. Sample aliquots of 200 μl were placed in a 96 well microtiter plate (Packard OptiPlate™-96, white polystyrene). Usually, four or eight replica of each sample (corresponding to one test condition) were placed in one column of wells. The plate was sealed with Scotch Pad (Qiagen). Incubation and Fluorescence Measurement Incubation at given temperature, shaking and measurement of the ThT fluorescence emission were done in a Fluoroskan Ascent FL fluorescence platereader or Varioskan platereader (Thermo Labsystems). The temperature was adjusted to 37° C. The orbital shaking was adjusted to 960 rpm with an amplitude of 1 mm in all the presented data. Fluorescence measurement was done using excitation through a 444 nm filter and measurement of emission through a 485 nm filter. Each run was initiated by incubating the plate at the assay temperature for 10 min. The plate was measured every 20 minutes for a desired period of time. Between each measurement, the plate was shaken and heated as described. Data Handling The measurement points were saved in Microsoft Excel format for further processing and curve drawing and fitting was performed using GraphPad Prism. The background emission from ThT in the absence of fibrils was negligible. The data points are typically a mean of four or eight samples and shown with standard deviation error bars. Only data obtained in the same experiment (i.e. samples on the same plate) are presented in the same graph ensuring a relative measure of fibrillation between experiments. The data set may be fitted to Eq. (1). However, since full sigmodial curves in this case are not always achieved during the measurement time, the degree of fibrillation is expressed as ThT fluorescence tabulated as the mean of the samples and shown with the standard deviation at various time points. Measurement of Initial and Final Concentrations The polypeptide concentration in each of the tested formulations were measured both before application in the ThT fibrillation assay (“Initial”) and after completion of the ThT fibrillation (“After ThT assay”). Concentrations were determined by reverse HPLC methods using a pramlintide standard as a reference. Before measurement after completion 150 μl was collected from each of the replica and transferred to an Eppendorf tube. […]

Row | ThT pH 4.0 lag time | SMILES
1 | >45 h | CC[C@H](C)[C@H](NC(=O)[C@@H]1CCCN1C(=O)CNC(=O)[C@H](Cc1ccccc1)NC(=O)[C@H](CC(N)=O)NC(=O)[C@H](CC(N)=O)NC(=O)[C@H](CO)NC(=O)[C@H](CO)NC(=O)[C@H](Cc1c[nH]cn1)NC(=O)[C@H](Cc1c[nH]cn1)NC(=O)[C@H](CC(C)C)NC(=O)[C@H](Cc1ccccc1)NC(=O)[C@H](CCC(=O)O)NC(=O)[C@H](C)NC(=O)[C@H](CC(C)C)NC(=O)[C@H](CCCNC(=N)N)NC(=O)[C@H](CCC(N)=O)NC(=O)[C@@H](NC(=O)[C@H](C)NC(=O)[C@@H]1CSSC[C@H](NC(=O)[C@H](CCCCN)NC(=O)[C@H](Cc2c[nH]cn2)NC(=O)CC[C@H](NC(=O)CCCCCCCCCCCCCCCCCCC(=O)O)C(=O)O)C(=O)N[C@@H](CC(N)=O)C(=O)N[C@@H]([C@@H](C)O)C(=O)N[C@@H](C)C(=O)N[C@@H]([C@@H](C)O)C(=O)N1)[C@@H](C)O)C(=O)N[C@@H](CC(C)C)C(=O)N1CCC[C@H]1C(=O)N1CCC[C@H]1C(=O)N[C@H](C(=O)N[C@@H](CC(N)=O)C(=O)N[C@H](C(=O)NCC(=O)N[C@@H](CO)C(=O)N[C@@H](Cc1c[nH]cn1)C(=O)N[C@H](C(=O)N[C@@H](Cc1ccc(O)cc1)C(N)=O)[C@@H](C)O)C(C)C)[C@@H](C)O [Example 66, N-alpha-[(S)-4-Carboxy-4-(19-carboxynonadecanoylamino)butyryl]-His-[Glu14,His17,His35]-pramlintide] ({C20 diacid-γGlu}-HKCNTATCATQRLAEFLHHSSNNFGPILPPTNVGSHTY-NH2; disulfide 3-8)
2 | >45 h | CC[C@H](C)[C@H](NC(=O)[C@@H]1CCCN1C(=O)CNC(=O)[C@H](Cc1ccccc1)NC(=O)[C@H](CC(N)=O)NC(=O)[C@H](CC(N)=O)NC(=O)[C@H](CO)NC(=O)[C@H](CO)NC(=O)[C@H](Cc1c[nH]cn1)NC(=O)[C@H](Cc1c[nH]cn1)NC(=O)[C@H](CC(C)C)NC(=O)[C@H](Cc1ccccc1)NC(=O)[C@H](CCC(=O)O)NC(=O)[C@H](C)NC(=O)[C@H](CC(C)C)NC(=O)[C@H](CCCNC(=N)N)NC(=O)[C@H](CCC(N)=O)NC(=O)[C@@H](NC(=O)[C@H](C)NC(=O)[C@@H]1CSSC[C@H](NC(=O)[C@H](CCCCN)NC(=O)[C@H](Cc2c[nH]cn2)NC(=O)[C@H](Cc2c[nH]cn2)NC(=O)CC[C@H](NC(=O)CCCCCCCCCCCCCCCCCCC(=O)O)C(=O)O)C(=O)N[C@@H](CC(N)=O)C(=O)N[C@@H]([C@@H](C)O)C(=O)N[C@@H](C)C(=O)N[C@@H]([C@@H](C)O)C(=O)N1)[C@@H](C)O)C(=O)N[C@@H](CC(C)C)C(=O)N1CCC[C@H]1C(=O)N1CCC[C@H]1C(=O)N[C@H](C(=O)N[C@@H](CC(N)=O)C(=O)N[C@H](C(=O)NCC(=O)N[C@@H](CO)C(=O)N[C@@H](Cc1c[nH]cn1)C(=O)N[C@H](C(=O)N[C@@H](Cc1ccc(O)cc1)C(N)=O)[C@@H](C)O)C(C)C)[C@@H](C)O [Example 67, N-alpha-[(S)-4-Carboxy-4-(19-carboxynonadecanoylamino)butyryl]-His-His-[Glu14,His17,His35]-pramlintide] ({C20 diacid-γGlu}-HHKCNTATCATQRLAEFLHHSSNNFGPILPPTNVGSHTY-NH2; disulfide 4-9 (inferred))
3 | >45 h | CC[C@H](C)[C@H](NC(=O)[C@@H]1CCCN1C(=O)CNC(=O)[C@H](Cc1ccccc1)NC(=O)[C@H](CC(N)=O)NC(=O)[C@H](CC(N)=O)NC(=O)[C@H](CO)NC(=O)[C@H](CO)NC(=O)[C@H](Cc1c[nH]cn1)NC(=O)[C@H](CCCNC(=N)N)NC(=O)[C@H](CC(C)C)NC(=O)[C@H](Cc1ccccc1)NC(=O)[C@H](CCC(=O)O)NC(=O)[C@H](C)NC(=O)[C@H](CC(C)C)NC(=O)[C@H](CCCNC(=N)N)NC(=O)[C@H](CCC(N)=O)NC(=O)[C@@H](NC(=O)[C@H](C)NC(=O)[C@@H]1CSSC[C@H](NC(=O)[C@H](CCCCN)NC(=O)[C@H](Cc2c[nH]cn2)NC(=O)CC[C@H](NC(=O)CCCCCCCCCCCCCCCCCCC(=O)O)C(=O)O)C(=O)N[C@@H](CC(N)=O)C(=O)N[C@@H]([C@@H](C)O)C(=O)N[C@@H](C)C(=O)N[C@@H]([C@@H](C)O)C(=O)N1)[C@@H](C)O)C(=O)N[C@@H](CC(C)C)C(=O)N1CCC[C@H]1C(=O)N1CCC[C@H]1C(=O)N[C@H](C(=O)N[C@@H](CC(N)=O)C(=O)N[C@H](C(=O)NCC(=O)N[C@@H](CO)C(=O)N[C@@H](Cc1c[nH]cn1)C(=O)N[C@H](C(=O)N[C@@H](Cc1ccc(O)cc1)C(N)=O)[C@@H](C)O)C(C)C)[C@@H](C)O [Example 68, N-alpha-[(S)-4-Carboxy-4-(19-carboxynonadecanoylamino)butyryl]-His-[Glu14,Arg17,His35]-pramlintide] ({C20 diacid-γGlu}-HKCNTATCATQRLAEFLRHSSNNFGPILPPTNVGSHTY-NH2; disulfide 3-8 (inferred); C-terminus assumed)
4 | >45 h | CC[C@H](C)[C@H](NC(=O)[C@@H]1CCCN1C(=O)CNC(=O)[C@H](Cc1ccccc1)NC(=O)[C@H](CC(N)=O)NC(=O)[C@H](CC(N)=O)NC(=O)[C@H](CO)NC(=O)[C@H](CO)NC(=O)[C@H](Cc1c[nH]cn1)NC(=O)[C@H](CCCNC(=N)N)NC(=O)[C@H](CC(C)C)NC(=O)[C@H](Cc1ccccc1)NC(=O)[C@H](CCC(=O)O)NC(=O)[C@H](C)NC(=O)[C@H](CC(C)C)NC(=O)[C@H](CCCNC(=N)N)NC(=O)[C@H](CCC(N)=O)NC(=O)[C@@H](NC(=O)[C@H](C)NC(=O)[C@@H]1CSSC[C@H](NC(=O)[C@H](CCCCN)NC(=O)[C@H](Cc2c[nH]cn2)NC(=O)[C@H](Cc2c[nH]cn2)NC(=O)CC[C@H](NC(=O)CCCCCCCCCCCCCCCCCCC(=O)O)C(=O)O)C(=O)N[C@@H](CC(N)=O)C(=O)N[C@@H]([C@@H](C)O)C(=O)N[C@@H](C)C(=O)N[C@@H]([C@@H](C)O)C(=O)N1)[C@@H](C)O)C(=O)N[C@@H](CC(C)C)C(=O)N1CCC[C@H]1C(=O)N1CCC[C@H]1C(=O)N[C@H](C(=O)N[C@@H](CC(N)=O)C(=O)N[C@H](C(=O)NCC(=O)N[C@@H](CO)C(=O)N[C@@H](Cc1c[nH]cn1)C(=O)N[C@H](C(=O)N[C@@H](Cc1ccc(O)cc1)C(N)=O)[C@@H](C)O)C(C)C)[C@@H](C)O [Example 69, N-alpha-[(S)-4-Carboxy-4-(19-carboxynonadecanoylamino)butyryl]-His-His-[Glu14,Arg17,His35]-pramlintide] ({C20 diacid-γGlu}-HHKCNTATCATQRLAEFLRHSSNNFGPILPPTNVGSHTY-NH2; disulfide 4-9)
5 | >45 h | CC[C@H](C)[C@H](NC(=O)[C@@H]1CCCN1C(=O)CNC(=O)[C@H](Cc1ccccc1)NC(=O)[C@H](CC(N)=O)NC(=O)[C@H](CC(N)=O)NC(=O)[C@H](CO)NC(=O)[C@H](CO)NC(=O)[C@H](Cc1c[nH]cn1)NC(=O)[C@H](Cc1c[nH]cn1)NC(=O)[C@H](CC(C)C)NC(=O)[C@H](Cc1ccccc1)NC(=O)[C@H](CCC(=O)O)NC(=O)[C@H](C)NC(=O)[C@H](CC(C)C)NC(=O)[C@H](CCCNC(=N)N)NC(=O)[C@H](CCC(N)=O)NC(=O)[C@@H](NC(=O)[C@H](C)NC(=O)[C@@H]1CSSC[C@H](NC(=O)[C@H](CCCCN)NC(=O)[C@H](Cc2c[nH]cn2)NC(=O)CC[C@H](NC(=O)CCCCCCCCCCCCCCCCC(=O)O)C(=O)O)C(=O)N[C@@H](CC(N)=O)C(=O)N[C@@H]([C@@H](C)O)C(=O)N[C@@H](C)C(=O)N[C@@H]([C@@H](C)O)C(=O)N1)[C@@H](C)O)C(=O)N[C@@H](CC(C)C)C(=O)N1CCC[C@H]1C(=O)N1CCC[C@H]1C(=O)N[C@H](C(=O)N[C@@H](CC(N)=O)C(=O)N[C@H](C(=O)NCC(=O)N[C@@H](CO)C(=O)N[C@@H](Cc1c[nH]cn1)C(=O)N[C@H](C(=O)N[C@@H](Cc1ccc(O)cc1)C(N)=O)[C@@H](C)O)C(C)C)[C@@H](C)O [Example 70, N-alpha-[(S)-4-Carboxy-4-(17-carboxyheptadecanoylamino)butyryl]-His-[Glu14,His17,His35]-pramlintide] ({C18 diacid-γGlu}-HKCNTATCATQRLAEFLHHSSNNFGPILPPTNVGSHTY-NH2; disulfide 3-8 (inferred))
